Drawing on patent US20070117858A1, “SUBSTITUTED 5-HETEROARYL-1-PHENYL-PYRAZOLE CANNABINOID MODULATORS” (priority 2005, published 2007), this text covers IC50 and inhibition for 24 compounds.

The target of one assay is T1, human CB1 receptor (Homo sapiens, UniProt P21554).
T1 construct: expressed in transfected cells; host or cells: SK-N-MC cells, stably transfected with pcDNA3 CB-1 (human); semi-purified membrane pellet
Briefly: Cannabinoid CB1 receptor binding assay ([3H]-CP-55,940 displacement, SK-N-MC cell membranes). The following applies: for inhibition at 0.2 µM: 1.5 h, read-out: Cannabinoid CB1 Receptor Binding, percent inhibition. How it is done:
(§1) Binding Assay for CB1 or CB2 Agonists or Inverse Agonists
(§2) The human CB1 and CB2 receptors were stably expressed in SK-N-MC cells transfected with pcDNA3 CB-1 (human) or pcDNA3 CB-2 (human). The cells were grown in T-180 cell culture flasks under standard cell culture conditions at 37° C. in a 5% CO2 atmosphere. The cells were harvested by trysinization and homogenized in a homogenization buffer (10 mM Tris, 0.2 mM MgCl2, 5 mM KCl, with protease inhibitors aprotinin, leupeptin, pepstatin A and bacitracin) and centrifuged (2000 g). The supernatant was then centrifuged in 2M sucrose (31,300 g) to produce a semi-purified membrane pellet. The pellet was resuspended in homogenization and stored at −80° C.
(§3) On the day of the assay, the pellet was thawed on ice and diluted in assay buffer (50 mM Tris-HCl, 5 mM MgCl2, 2.5 mM EDTA, 0.5 mg/mL fatty acid free bovine serum albumin, pH 7.5). The diluted membrane pellet was added with buffer, either a test compound or vehicle standard and the radioligand […] (0.2 nM) to the wells of a 96-well polypropylene plate. Non-specific binding was measured in wells containing W1N 55,212 (10 uM). The plate was covered and incubated for 90 minutes at 30° C. The contents were then aspirated onto a Packard Unifilter GF/C filter bottom plate prewet with 0.5% polyethyleneimine. The wells of the polypropylene plate were rinsed and aspirated seven times with a 0.9% saline-0.5% Tween 20 solution. The Unifilter plate was dried, scintillation cocktail was added to each well and the counts representing binding were quantitated in a TopCount scintillation counter.
(§4) For compounds tested, an IC50 binding value was obtained from percent inhibition studies in which various test concentrations were used. The binding value was calculated by linear regression.
(§5) For compounds without an IC50 binding value, the percent inhibition (%) was obtained at a test concentration of 0.2 μM.

A further assay has as its target T2, human CB2 receptor (Homo sapiens, UniProt P34972).
T2 construct: expressed in transfected cells; host or cells: SK-N-MC cells, stably transfected with pcDNA3 CB-2 (human); semi-purified membrane pellet
Briefly: Cannabinoid CB2 receptor binding assay ([3H]-CP-55,940 displacement, SK-N-MC cell membranes). The following applies: 1.5 h; test concentration of 0.2 μM; radioligand CP-55,940 0.2 nM; read-out: Cannabinoid CB2 Receptor Binding, percent inhibition. The method, then:
as §1, §2, §3, §4, §5

Read-outs that look alike come from different tables or passages of the source.

T2 sequence (P34972 whole entry): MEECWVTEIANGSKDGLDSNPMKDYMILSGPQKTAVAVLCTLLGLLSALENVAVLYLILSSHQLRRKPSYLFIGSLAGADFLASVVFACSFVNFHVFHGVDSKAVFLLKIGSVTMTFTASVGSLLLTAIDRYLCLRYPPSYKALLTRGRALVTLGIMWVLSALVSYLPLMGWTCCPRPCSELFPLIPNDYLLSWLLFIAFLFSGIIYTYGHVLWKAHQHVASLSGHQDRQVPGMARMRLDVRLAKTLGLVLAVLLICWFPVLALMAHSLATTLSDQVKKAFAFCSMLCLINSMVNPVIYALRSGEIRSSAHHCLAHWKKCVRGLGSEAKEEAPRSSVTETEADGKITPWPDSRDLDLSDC
T1 sequence (P21554 whole entry): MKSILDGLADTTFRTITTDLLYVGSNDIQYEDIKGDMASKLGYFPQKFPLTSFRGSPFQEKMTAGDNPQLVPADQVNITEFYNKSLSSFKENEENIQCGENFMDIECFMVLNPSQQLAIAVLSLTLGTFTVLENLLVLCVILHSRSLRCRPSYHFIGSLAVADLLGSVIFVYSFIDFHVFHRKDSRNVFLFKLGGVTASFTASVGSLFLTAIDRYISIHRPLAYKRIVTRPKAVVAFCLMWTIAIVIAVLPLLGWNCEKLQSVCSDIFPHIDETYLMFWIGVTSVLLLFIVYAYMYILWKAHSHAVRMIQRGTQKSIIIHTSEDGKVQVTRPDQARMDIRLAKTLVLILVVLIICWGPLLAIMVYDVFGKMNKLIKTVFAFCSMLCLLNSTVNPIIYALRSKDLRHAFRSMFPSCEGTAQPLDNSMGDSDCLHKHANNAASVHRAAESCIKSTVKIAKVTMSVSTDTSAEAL

On human CB1 receptor, `Cc1c(C(=O)N[C@@H](C)c2ccccc2)nn(-c2ccc(Cl)cc2Cl)c1-c1ccc(Cl)s1` [Cpd 3, 5-(5-chloro-thiophen-2-yl)-1-(2,4-dichloro-phenyl)-4-methyl-1H-pyrazole-3-carboxylic acid [(1S)-1-phenyl-ethyl]-amide] had a concentration for half-maximal inhibition (IC50) of 35 nM.

`C[C@@H](NC(=O)c1nn(-c2ccc(Cl)cc2Cl)c(-c2cccs2)c1C#N)c1ccccc1` [Cpd 16, 4-cyano-1-(2,4-dichloro-phenyl)-5-thiophen-2-yl-1H-pyrazole-3-carboxylic acid [(1R)-1-phenyl-ethyl]-amide]: the inhibition at 0.2 µM stood at 17% on human CB2 receptor and 61% at human CB1 receptor. The corresponding values for `Cc1c(C(=O)N[C@H](C)C2CCCCC2)nn(-c2ccc(Cl)cc2Cl)c1-c1cccs1` [Cpd 5, 1-(2,4-dichloro-phenyl)-4-methyl-5-thiophen-2-yl-1H-pyrazole-3-carboxylic acid [(1R)-1-cyclohexyl-ethyl]-amide] are 15% and 43%. For the compound `Cc1c(C(=O)N[C@@H](C)C2CCCCC2)nn(-c2ccc(Cl)cc2Cl)c1-c1cc(Br)cs1` [Cpd 48, 5-(4-bromo-thiophen-2-yl)-1-(2,4-dichloro-phenyl)-4-methyl-1H-pyrazole-3-carboxylic acid [(1S)-1-cyclohexyl-ethyl]-amide], the inhibition at 0.2 µM on human CB2 receptor is 49%; at human CB1 receptor it was 60%. On to `Cc1c(C(=O)N[C@@H](C)C2CCCCC2)nn(-c2ccc(Cl)cc2Cl)c1-c1ccc(Cl)s1` [Cpd 12, 5-(5-chloro-thiophen-2-yl)-1-(2,4-dichloro-phenyl)-4-methyl-1H-pyrazole-3-carboxylic acid [(1S)-1-cyclohexyl-ethyl]-amide], for which the inhibition at 0.2 µM on human CB2 receptor was 40%. This compound also returned a 50% inhibitory concentration (IC50) at human CB1 receptor of 15 nM.

Turning to `C[C@@H](NC(=O)c1nn(-c2ccc(Cl)cc2Cl)c(-c2cccs2)c1C#N)c1ccccn1` [Cpd 17, 4-cyano-1-(2,4-dichloro-phenyl)-5-thiophen-2-yl-1H-pyrazole-3-carboxylic acid [(1R)-1-pyridin-2-yl-ethyl]-amide], the figures for the inhibition at 0.2 µM at human CB2 receptor and on human CB1 receptor were 14% and 25%, respectively. For the compound `Cc1c(C(=O)N[C@@H](C)C2CCCCC2)nn(-c2ccc(Cl)cc2Cl)c1-c1ccc(I)s1` [Cpd 39, 1-(2,4-dichloro-phenyl)-5-(5-iodo-thiophen-2-yl)-4-methyl-1H-pyrazole-3-carboxylic acid [(1S)-1-cyclohexyl-ethyl]-amide], the IC50 at human CB1 receptor is 18 nM. Regarding `Cc1ccc(-c2c(C)c(C(=O)N[C@@H](C)c3ccccc3)nn2-c2ccc(Cl)cc2Cl)o1` [Cpd 54, 1-(2,4-dichloro-phenyl)-4-methyl-5-(5-methyl-furan-2-yl)-1H-pyrazole-3-carboxylic acid [(1S)-1-phenyl-ethyl]-amide], at human CB2 receptor, the inhibition at 0.2 µM is 52%. In addition, the IC50 at human CB1 receptor (from percent inhibition studies at various test concentrations, calculated by linear regression, radioligand CP-55,940 0.2 nM, read-out: Cannabinoid CB1 Receptor Binding, IC50 binding value) is 140 nM. Take `Cc1c(C(=O)N[C@H](C)c2ccccc2)nn(-c2ccc(Cl)cc2Cl)c1-c1ccc(Cl)s1` [Cpd 14, 5-(5-chloro-thiophen-2-yl)-1-(2,4-dichloro-phenyl)-4-methyl-1H-pyrazole-3-carboxylic acid [(1R)-1-phenyl-ethyl]-amide]: the inhibition at 0.2 µM on human CB2 receptor was determined as 40%. In addition, at human CB1 receptor, the concentration for half-maximal inhibition (IC50) was 27 nM.

On to `C[C@H](NC(=O)c1nn(-c2ccc(Cl)cc2Cl)c(-c2cccs2)c1C#N)c1ccccc1` [Cpd 19, 4-cyano-1-(2,4-dichloro-phenyl)-5-thiophen-2-yl-1H-pyrazole-3-carboxylic acid [(1S)-1-phenyl-ethyl]-amide], for which the inhibition at 0.2 µM on human CB2 receptor stood at 24%; at human CB1 receptor it was 45%. Consider `N#Cc1c(C(=O)NN2CCCCC2)nn(-c2ccc(Cl)cc2Cl)c1-c1cccs1` [Cpd 20, 4-cyano-1-(2,4-dichloro-phenyl)-5-thiophen-2-yl-1H-pyrazole-3-carboxylic acid piperidin-1-ylamide], for which the inhibition at 0.2 µM at human CB2 receptor amounted to 9%; at human CB1 receptor it was 37%. `Cc1c(C(=O)N[C@@H](C)c2ccccc2)nn(-c2ccc(Cl)cc2Cl)c1-c1cc(Br)cs1` [Cpd 46, 5-(4-bromo-thiophen-2-yl)-1-(2,4-dichloro-phenyl)-4-methyl-1H-pyrazole-3-carboxylic acid [(1S)-1-phenyl-ethyl]-amide]: the inhibition at 0.2 µM on human CB2 receptor was determined as 47%; at human CB1 receptor, 52%. With `C[C@@H](NC(=O)c1nn(-c2ccc(Cl)cc2Cl)c(-c2ccc(Cl)s2)c1C#N)c1ccccc1` [Cpd 25, 5-(5-chloro-thiophen-2-yl)-4-cyano-1-(2,4-dichloro-phenyl)-1H-pyrazole-3-carboxylic acid [(1R)-1-phenyl-ethyl]-amide], on human CB2 receptor, the inhibition at 0.2 µM was determined as 13%. The half-inhibitory concentration (IC50) on human CB1 receptor is 16 nM.

With `Cc1c(C(=O)NN2CCCCC2)nn(-c2ccc(Cl)cc2Cl)c1-c1ccc(F)s1` [Cpd 28, 1-(2,4-dichloro-phenyl)-5-(5-fluoro-thiophen-2-yl)-4-methyl-1H-pyrazole-3-carboxylic acid piperidin-1-ylamide], the inhibition at 0.2 µM came to 20% at human CB2 receptor and 69% on human CB1 receptor.

Regarding `Cc1c(C(=O)N[C@H](C)C2CCCCC2)nn(-c2ccc(Cl)cc2Cl)c1-c1ccc(Cl)s1` [Cpd 13, 5-(5-chloro-thiophen-2-yl)-1-(2,4-dichloro-phenyl)-4-methyl-1H-pyrazole-3-carboxylic acid [(1R)-1-cyclohexyl-ethyl]-amide], at human CB2 receptor, the inhibition at 0.2 µM was 37%. The concentration for half-maximal inhibition (IC50) on human CB1 receptor stood at 74 nM. Regarding `Cc1c(C(=O)N[C@@H](C)C2CCCCC2)nn(-c2ccc(Cl)cc2Cl)c1-c1cccs1` [Cpd 8, 1-(2,4-dichloro-phenyl)-4-methyl-5-thiophen-2-yl-1H-pyrazole-3-carboxylic acid [(1S)-1-cyclohexyl-ethyl]-amide], the inhibition at 0.2 µM at human CB2 receptor came to 1%; at human CB1 receptor it was 34%. The corresponding values for `Cc1ccc(-c2c(C)c(C(=O)N[C@H](C)c3ccccc3)nn2-c2ccc(Cl)cc2Cl)o1` [Cpd 55, 1-(2,4-dichloro-phenyl)-4-methyl-5-(5-methyl-furan-2-yl)-1H-pyrazole-3-carboxylic acid [(1R)-1-phenyl-ethyl]-amide] are 30% and 58%. As to `CCc1c(C(=O)N2CCC(O)CC2)nn(-c2ccc(Cl)cc2Cl)c1-c1ccc(Br)s1` [Cpd 50, [5-(5-bromo-thiophen-2-yl)-1-(2,4-dichloro-phenyl)-4-ethyl-1H-pyrazol-3-yl]-(4-hydroxy-piperidin-1-yl)-methanone], the inhibition at 0.2 µM stood at 17% at human CB2 receptor and 28% at human CB1 receptor. As to `Cc1c(C(=O)N[C@@H](C)c2ccccn2)nn(-c2ccc(Cl)cc2Cl)c1-c1cccs1` [Cpd 9, 1-(2,4-dichloro-phenyl)-4-methyl-5-thiophen-2-yl-1H-pyrazole-3-carboxylic acid [(1S)-1-pyridin-2-yl-ethyl]-amide], the values for the inhibition at 0.2 µM at human CB2 receptor and at human CB1 receptor were 8% and 25%, respectively.

`Cc1c(C(=O)N[C@@H](C)c2ccccn2)nn(-c2ccc(Cl)cc2Cl)c1-c1ccc(I)s1` [Cpd 37, 1-(2,4-dichloro-phenyl)-5-(5-iodo-thiophen-2-yl)-4-methyl-1H-pyrazole-3-carboxylic acid [(1S)-1-pyridin-2-yl-ethyl]-amide] yielded a half-inhibitory concentration (IC50) on human CB1 receptor of 31 nM. On the same count and under the same terms, for `Cc1c(C(=O)N[C@@H](C)c2ccccn2)nn(-c2ccc(Cl)cc2Cl)c1-c1ccc(Cl)s1` [Cpd 1, 5-(5-chloro-thiophen-2-yl)-1-(2,4-dichloro-phenyl)-4-methyl-1H-pyrazole-3-carboxylic acid [(1S)-1-pyridin-2-yl-ethyl]-amide] the value was 38 nM; for `Cc1c(C(=O)N[C@H](C)c2ccccc2)nn(-c2ccc(Cl)cc2Cl)c1-c1ccc(I)s1` [Cpd 38, 1-(2,4-dichloro-phenyl)-5-(5-iodo-thiophen-2-yl)-4-methyl-1H-pyrazole-3-carboxylic acid [(1R)-1-phenyl-ethyl]-amide], 23 nM.

`Cc1c(C(=O)N[C@@H](C)c2ccccc2)nn(-c2ccc(Cl)cc2Cl)c1-c1ccc(I)s1` [Cpd 36, 1-(2,4-dichloro-phenyl)-5-(5-iodo-thiophen-2-yl)-4-methyl-1H-pyrazole-3-carboxylic acid [(1S)-1-phenyl-ethyl]-amide]: the 50% inhibitory concentration (IC50) at human CB1 receptor turned out to be 17 nM.

On human CB1 receptor, `Cc1c(C(=O)NN2CCCCC2)nn(-c2ccc(Cl)cc2Cl)c1-c1ccc(Cl)s1` [Cpd 2, 5-(5-chloro-thiophen-2-yl)-1-(2,4-dichloro-phenyl)-4-methyl-1H-pyrazole-3-carboxylic acid piperidin-1-ylamide] returned a concentration for half-maximal inhibition (IC50) of 40 nM.
